These results are taken from patent publication US12630534B2 (TAKEDA PHARMACEUTICAL COMPANY LIMITED, priority 2020, dated 2026).

This assay addresses T1, human GPR139 (Homo sapiens, UniProt Q6DWJ6).
T1 construct: expressed in transfected cells; host or cells: CHO-TREx (Life Technologies) cells, expression induced with doxycycline
T1 sequence (Q6DWJ6 1-353): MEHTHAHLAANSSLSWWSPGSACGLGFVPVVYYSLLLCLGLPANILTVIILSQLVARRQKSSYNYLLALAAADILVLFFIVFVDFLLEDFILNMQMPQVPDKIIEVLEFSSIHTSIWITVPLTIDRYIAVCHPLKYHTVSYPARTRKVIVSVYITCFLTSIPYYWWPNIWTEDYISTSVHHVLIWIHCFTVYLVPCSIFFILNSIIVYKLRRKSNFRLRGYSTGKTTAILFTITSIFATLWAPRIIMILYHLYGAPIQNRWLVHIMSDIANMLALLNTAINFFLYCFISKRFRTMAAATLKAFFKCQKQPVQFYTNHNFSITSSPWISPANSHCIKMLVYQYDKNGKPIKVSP
Kind of assay: Inhibition rate of the amount of IP1 in GPR139-expressed CHO cells (inverse agonist assay, Test Example 2). It counts as cell-based. The note with it: relative value, inhibition rate of Example Compound 2 in Test Example 1 defined as 100%; for inhibition at 30 µM: CHO. On the procedure: The measurement of IP1 was made using an IP-ONE HTFR assay kit (cis-bio) and CHO-TREx (Life Technologies) cells stably transfected with GPR139. The CHO-TREx cells expressed human GPR139 with a tetracycline-inducing element. The cells were cultured in a medium containing F12K and 10% tetracycline-free FBS, and the expression of human GPR139 was induced over the course of 17 hours under conditions of 37° C. and 5% CO2 in the presence of 2 μg/mL of doxycycline (Clontech, 631311) in the growth medium on the day before assay. On the day of the test, after the cells were washed with 10 mL of PBS, the cells were detached with TrypLE Express (Life Technologies) and centrifuged at 1,000 rpm to form pellets, and a cell suspension was then prepared using a stimulation buffer (cis-bio, included in the IP-ONE HTRF assay kit).
The compound was diluted with the stimulation buffer, and 4 μL was added to a 384-well white assay plate (Greiner). The cell suspension was added so that there were 2000 cells per well, and the assay plate was left to stand for 40 minutes at 37° C. Equal amounts of IP1-d2 and Ab-Crp solutions (both available from cis-bio, included in the IP-ONE HTRF assay kit) prepared with a lysis buffer (cis-bio, included in the IP-ONE HTRF assay kit) were mixed, and 4 μL was added to the assay plate and left to stand for one hour at room temperature. After the fluorescence strengths of two wavelengths were measured by the HTRF settings of Envision (PerkinElmer), the value of Ratio={(Signal 665 nm)/(Signal 615 nm)}×10000 was calculated.
Measurement of the Inhibition Rate of the Amount of IP1 in GPR139-Expressed CHO Cells (Inverse Agonist Assay)
The activities of the compounds of Examples 1 and 3 to 167 were expressed as relative values in Table 2 by measuring the inhibition rate of the amount of IP1 with the same method as in Test Example 1 and defining the inhibition rate of the amount of IP1 of Example Compound 2 in Test Example 1 as […].

As for `CCn1cc(Cn2ccn(-c3cc(-c4ccc(F)cc4)cc(C4CC4(F)F)c3F)c2=O)cn1` (stereo not shown) [Example 144, 1-[5-(2,2-difluorocyclopropyl)-4,4′-difluoro[1,1′-biphenyl]-3-yl]-3-[(1-ethyl-1H-pyrazol-4-yl)methyl]-1,3-dihydro-2H-imidazol-2-one], under “30 µM”, the “Inhibition Rate at 30 μM” value is 101%.

The term inhibition denotes the drop in the measured response relative to a control, in per cent. Consider `CC(C)n1cc(Cn2ccn(-c3cc(N4CCO[C@H](C)C4)cc(C(F)(F)F)c3F)c2=O)cn1` [Example 35, 1-{2-fluoro-5-[(2R)-2-methylmorpholin-4-yl]-3-(trifluoromethyl)phenyl}-3-{[1-(propan-2-yl)-1H-pyrazol-4-yl]methyl}-1,3-dihydro-2H-imidazol-2-one], for which the inhibition at 30 µM was 99%.

`CCn1cc(Cn2cc(C)n(-c3cc(OCOC)cc(C(F)(F)F)c3)c2=O)cn1` [Example 48, 1-[(1-ethyl-1H-pyrazol-4-yl)methyl]-3-[3-(methoxymethoxy)-5-(trifluoromethyl)phenyl]-4-methyl-1,3-dihydro-2H-imidazol-2-one]: the inhibition at 30 µM came out at 101%.

For the compound `CCn1cc(Cn2cc(C)n(-c3cc(C(F)(F)F)cc(N4CCOC(C)(C)C4)n3)c2=O)cn1` [Example 125, 3-[6-(2,2-dimethylmorpholin-4-yl)-4-(trifluoromethyl)pyridin-2-yl]-1-[(1-ethyl-1H-pyrazol-4-yl)methyl]-4-methyl-1,3-dihydro-2H-imidazol-2-one], the inhibition at 30 µM worked out at 101%.

In the case of `CCn1cc(Cn2cc(C)n(-c3cc(C(F)(F)F)cc(N(C)C4CCOCC4)n3)c2=O)cn1` [Example 86, 1-[(1-ethyl-1H-pyrazol-4-yl)methyl]-4-methyl-3-{6-[methyl(oxan-4-yl)amino]-4-(trifluoromethyl)pyridin-2-yl}-1,3-dihydro-2H-imidazol-2-one], the inhibition at 30 µM was found to be 101%.

As for `CCn1cc(Cn2cc(C)n(-c3cc(C4CCC(F)(F)CC4)cc(C(F)(F)F)c3)c2=O)cn1` [Example 33, 3-[3-(4,4-difluorocyclohexyl)-5-(trifluoromethyl)phenyl]-1-[(1-ethyl-1H-pyrazol-4-yl)methyl]-4-methyl-1,3-dihydro-2H-imidazol-2-one], the inhibition at 30 µM is 100%.

Take `CCn1cc(Cn2cc(C)n(-c3cc(C(F)(F)F)cc(NCC4(F)CCC4)n3)c2=O)cn1` [Example 110, 1-[(1-Ethyl-1-pyrazole-4-yl)methyl]-3-[6={[(1-fluorocyclobutyl)methyl]amino}-4-(trifluoromethyl)pyridine-2-yl]-4-methyl-1,3-dihydro-2H-imidazole-2-one]: the inhibition at 30 µM worked out at 101%.

On to `Cc1cn(Cc2cnn(C(C)C)c2)c(=O)n1-c1cc(C2CC2)cc(N2CCO[C@H](C)C2)n1` [Example 126, 3-{4-cyclopropyl-6-[(2R)-2-methylmorpholin-4-yl]pyridin-2-yl}-4-methyl-1-{[1-(propan-2-yl)-1H-pyrazol-4-yl]methyl}-1,3-dihydro-2H-imidazol-2-one], for which the inhibition at 30 µM stood at 100%.

As to `CCn1cc(Cn2cc(C)n(-c3cc(N4C[C@@H](C)O[C@@H](C)C4)cc(C(F)(F)F)c3)c2=O)cn1` [Example 23, 3-{3-[(2R,6S)-2,6-dimethylmorpholin-4-yl]-5-(trifluoromethyl)phenyl}-1-[(1-ethyl-1H-pyrazol-4-yl)methyl]-4-methyl-1,3-dihydro-2H-imidazol-2-one], the inhibition at 30 µM was 100%.

On to `CCn1cc(Cn2cc(C)n(-c3cc(N4CCOC(C(F)F)C4)cc(C(F)(F)F)c3)c2=O)cn1` (stereo not shown) [Example 20, 3-{3-[2-(difluoromethyl)morpholin-4-yl]-5-(trifluoromethyl)phenyl}-1-[(1-ethyl-1H-pyrazol-4-yl)methyl]-4-methyl-1,3-dihydro-2H-imidazol-2-one], for which the inhibition at 30 µM is 99%.

With `Cc1nn(-c2cc(N3CCO[C@H](C)C3)cc(OC(F)(F)F)c2F)c(=O)n1Cc1cnn(C(C)C)c1` [Example 159, 2-{2-fluoro-5-[(2R)-2-methylmorpholin-4-yl]-3-(trifluoromethoxy)phenyl}-5-methyl-4-{[1-(propan-2-yl)-1H-pyrazol-4-yl]methyl}-2,4-dihydro-3H-1,2,4-triazol-3-one], the inhibition at 30 µM came to 99%.

`CCn1cc(Cn2c(C)cn(-c3cc(N4CCOC(F)(F)C4)cc(C(F)(F)F)c3F)c2=O)cn1` [Example 54, 1-[5-(2,2-difluoromorpholin-4-yl)-2-fluoro-3-(trifluoromethyl)phenyl]-3-[(1-ethyl-1H-pyrazol-4-yl)methyl]-4-methyl-1,3-dihydro-2H-imidazol-2-one]: the inhibition at 30 µM was determined as 101%.

Consider `Cc1cn(-c2cc(OC3CCOCC3)cc(C(F)(F)F)c2F)c(=O)n1Cc1cnn(C(C)C)c1` [Example 119, 1-{2-fluoro-5-[(oxan-4-yl)oxy]-3-(trifluoromethyl)phenyl}-4-methyl-3-{[1-(propan-2-yl)-1H-pyrazol-4-yl]methyl}-1,3-dihydro-2H-imidazol-2-one], for which the inhibition at 30 µM turned out to be 101%.

In the case of `CCn1cc(Cn2cc(C)n(-c3cc(OC4CCOCC4)cc(C(F)(F)F)c3)c2=O)cn1` [Example 6, 1-[(1-ethyl-1H-pyrazol-4-yl)methyl]-4-methyl-3-{3-[(oxan-4-yl)oxy]-5-(trifluoromethyl)phenyl}-1,3-dihydro-2H-imidazol-2-one], the inhibition at 30 µM was 102%.

With `CCn1cc(Cn2c(C)cn(-c3cc(N4CCO[C@H](C)C4)cc(C(F)(F)F)c3Cl)c2=O)cn1` [Example 57, 1-{2-chloro-5-[(2R)-2-methylmorpholin-4-yl]-3-(trifluoromethyl)phenyl}-3-[(1-ethyl-1H-pyrazol-4-yl)methyl]-4-methyl-1,3-dihydro-2H-imidazol-2-one], the inhibition at 30 µM worked out at 101%.

Consider `CCc1nn(-c2cc(N3CCOC(C)(C)C3)cc(C(F)(F)F)c2F)c(=O)n1Cc1cnn(CC)c1` [Example 136, 2-[5-(2,2-dimethylmorpholin-4-yl)-2-fluoro-3-(trifluoromethyl)phenyl]-5-ethyl-4-[(1-ethyl-1H-pyrazol-4-yl)methyl]-2,4-dihydro-3H-1,2,4-triazol-3-one], for which the inhibition at 30 µM came out at 100%.

Consider `CCn1cc(Cn2c(C)nn(-c3cc(N(C)C4CCOCC4)cc(C(F)(F)F)c3F)c2=O)cn1` [Example 95, 4-[(1-ethyl-1H-pyrazol-4-yl)methyl]-2-{2-fluoro-5-[methyl(oxan-4-yl)amino]-3-(trifluoromethyl)phenyl}-5-methyl-2,4-dihydro-3H-1,2,4-triazol-3-one], for which the inhibition at 30 µM amounted to 100%.

For the compound `CCn1cc(Cn2c(C)cn(-c3cc(N4CCOC(C)(C)C4)cc(Cl)c3F)c2=O)cn1` [Example 166, 1-[3-chloro-5-(2,2-dimethylmorpholin-4-yl)-2-fluorophenyl]-3-[(1-ethyl-1H-pyrazol-4-yl)methyl]-4-methyl-1,3-dihydro-2H-imidazol-2-one], the inhibition at 30 µM was 98%.

For the compound `CCn1cc(Cn2ccn(-c3cc(N4CCO[C@H](C)C4)cc(OC(F)(F)F)c3F)c2=O)cn1` [Example 153, 1-[(1-ethyl-1H-pyrazol-4-yl)methyl]-3-{2-fluoro-5-[(2R)-2-methylmorpholin-4-yl]-3-(trifluoromethoxy)phenyl}-1,3-dihydro-2H-imidazol-2-one], the inhibition at 30 µM turned out to be 100%.

In the case of `CCn1cc(Cn2ccn(-c3cc(N(C)C4CCOCC4)cc(C(C)(C)O)c3F)c2=O)cn1` [Example 113, 1-[(1-ethyl-1H-pyrazol-4-yl)methyl]-3-{2-fluoro-3-(2-hydroxypropan-2-yl)-5-[methyl(oxan-4-yl)amino]phenyl}-1,3-dihydro-2H-imidazol-2-one], the inhibition at 30 µM was 103%.

Consider `CCn1cc(Cn2c(C)cn(-c3cc(N4CCO[C@H](C)C4)cc(C(F)(F)F)c3F)c2=O)cn1` [Example 25, 3-[(1-ethyl-1H-pyrazol-4-yl)methyl]-1-{2-fluoro-5-[(2R)-2-methylmorpholin-4-yl]-3-(trifluoromethyl)phenyl}-4-methyl-1,3-dihydro-2H-imidazol-2-one], for which the inhibition at 30 µM is 100%.

Take `CC(C)n1cc(Cn2ccn(-c3cc(C(F)(F)F)cc(N4CCO[C@H](C)C4)n3)c2=O)cn1` [Example 102, 1-{6-[(2R)-2-methylmorpholin-4-yl]-4-(trifluoromethyl)pyridin-2-yl}-3-{[1-(propan-2-yl)-1H-pyrazol-4-yl]methyl}-1,3-dihydro-2H-imidazol-2-one]: the inhibition at 30 µM turned out to be 105%.
